Measured values from patent EP0576227A2, “2'-Deoxy-2',2'-difluoro(2,6,8-substituted) purine nucleosides having anti-viral and anti-cancer activity and intermediates” (ELI LILLY AND COMPANY, priority 1992, dated 1993).
≈ marks a conversion by molar mass, not a printed value.

Key:
[1] = system: human leukemia cells (CCRF-CEM cell line); test: Growth inhibition of human leukemia cells (CCRF-CEM cytotoxicity screen); assay type: cell-based; details: concentration giving 50 percent growth inhibition; CCRF-CEM cell line
From the text: In another aspect, the invention provides a method of treating susceptible neoplasms in mammals comprising administering to a mammal in need of such treatment a pharmaceutically effective amount of a compound of formula (I). […] The treatment contemplated by the present method includes both medical therapeutic and prophylactic treatment, as appropriate. The specific dosage level of the compound administered according to this invention will, of course, be determined by the circumstances surrounding the case, including, for example, the particular compound administered, the route of administration, and the condition being treated. The compounds are effectively administered orally, topically, or parenterally. […] The representative compounds of formula (I) employed in the present invention are cytotoxic as they inhibit the growth of rapidly dividing human leukemia cells (CCRF-CEM cell line). Table 1 below gives the results of testing several compounds representative of formula (I).

[2] = system: Hepatitis B Virus; test: Hepatitis B Virus Test (HBV DNA in supernatant of Hep10A cells, PCR / Southern blot); assay type: cell-based, human Hepatitis B Virus (HBV); details: 240 h
From the text: Plasmids were constructed using standard recombinant DNA techniques; see Sambrook, J., et al., Molecular Cloning: A Laboratory Manual, 2nd Edition (1989), Cold Spring Harbor Press, Cold Spring Harbor, NY. Plasmid pTHBV contains a head-to-tail dimer of the human Hepatitis B Virus (HBV) genome, subtype adw, clone into the EcoR I site of pUC9. […] and subcloned into the Sal I site of pTHBV after a two base fill-in reaction with the Klenow fragment of E. coli DNA polymerase I.
HepG2 cells (human hepatoblastoma, ATCC HB 8065) were routinely passaged in growth medium consisting of EARLE'S minimal essential media (Grand Island Biological Company (GIBCO) Bethesda Research Laboratories (BRL), Life Technologies, Inc., Gathersburg, MD.) supplemented with sodium pyruvate, 10 percent fetal bovine serum, 100 units/ml penicillin, and 100 µg/ml streptomycin. Hep10A cells were derived from HepG2 cells. Briefly, HepG2 cells were seeded into 60 mm culture dishes in growth medium, and when approximately 50 percent confluent, were transfected with pTHBVneo using the calcium phosphate precipitation method described by Graham, F.L. and Van der Eb in Virology, 52, p 456-467 (1973). After four hours of post-transfection, the cells were shocked with 10 percent dimethylsulfoxide and 20 percent glucose for 5 minutes, after which they were allowed to recover for 24 horus. The transfected cells were passaged and reseeded in the presence of growth medium containing 800 µg/ml geneticin. The cells were monitored for the appearance of geneticin resistant cells. A genecitin resistant cell line was established, and routinely passaged in growth medium containing 400 µg/ml geneticin. This cell line will be referred to as Hep10A.
Hep10A cells were seeded into 96-well microtiter plates at a density of approximately 50,000 cells per well, allowed to grow to confluence, and maintained at confluence for 2 to 4 days to allow Hepatitus B Virus derivative HBV DNA levels to stabilize; see Sells, M.A., et al., J. Virol., 62, p 2836-2844 (1987) and Korba, B.E., et al., Antiviral Res., 15, p 217-228 (1991). At this time, cells were treated with 2'-deoxy-2'-fluoroarabino-5-iodouridine (FIAU) and the compound of Example 5 for 10 days, with daily changes of media containing fresh drug. FIAU was used as a positive control. On day 10, culture supernatant samples were taken and stored at 4°C until needed. PCR analysis was performed on supernatant samples using appropriate primers to amplify a 477 base pair fragment from the "a" determinant of the surface antigen gene of HBV subtype adw. Following eletrophoresis through agarose gels, the DNA was transferred to nylon membranes (Optiblot™, IBI, New Haven, CT) by capillary action (Southern, 1975) using 1X saline sodium citrate (SSC) (1X SSC=0.15 M NaCl, 0.015 M sodium citrate). After baking in vacuo for 30 minutes, the blots were hybridized for 15 to 18 hours to 1x10⁶ cpm/ml of […] the method of random priming (Feinberg and Vogelstein, 1983). Hybridization was carried out at 42°C using 50 percent N,N-dimethylformamide, 6X saline sodium phosphate ethylenediamine tetraacetic acid (SSPE), 1.0 percent sodium dodyl sulfate (SDS), and 50 µg/ml salmon sperm DNA (1X SSPE=0.18 M NaCl; […] NaH₂PO₄, pH 7.4; 1 mmol ethylene diamine tetraacetic acid (EDTA)). The hybridized blots were washed as follows: twice in 2X SSC/0.1 percent SDS at room temperature for 1 hour, once in 0.1X SSC/0.1 percent SDS at room temperature for 30 minutes, and once in 0.1x SSC/0.1 percent supplemented with SDS at 65°C for 15 minutes. The filters were exposed to x-ray film and quantitated by densitometry.

[3] = system: HC1 human colon carcinoma; test: HC1 human colon carcinoma xenograft in mice, tumor weight inhibition; assay type: in vivo, Nu/Nu CD-1 mice; details: Intra-Peritoneal 0.5 ml, Daily X 10
From the text: The HC1 human colon carcinoma xenograft was obtained in 1987 from Drs. Peter and Janet Houghton, St. Jude Children's Hospital, Memphis, TN. The tumor is a moderately well-differentiated adenocarcinoma of the ascending colon [British Journal of Cancer, 37, p 213-223 (1987)]. The first passage tumor was stored in liquid nitrogen using standard techniques. The tumors were maintained in serial passage Nu/Nu CD-1 mice (Charles River Laboratories, Portage, MI.).
The study testing the efficacy of these compounds against HC1 human colon carcinoma was initiated by removing a tumor from passage animals and mincing it into 1 to 3 mm square fragments using sterile techniques. Tumor pieces were checked for sterility using both an Antibiotic Medium 1 and Brain Heart Infusion (Difco; Detroit, MI). Tumor pieces were implanted subcutaneously in the auxilary region of recipient mice by trocar. Drug therapy on the appropriate schedule was initiated 14 days after tumor implantation. Drugs were dissolved in Emulphor for all experiments. All animals were weighed at the beginning and end of drug treatment. Food and water were provided ad libitum. On day 14 after the initiation of therapy, two dimensional measurements (width and length) of all tumors were taken using electronic calipers interfaced to a computer. Tumor weights were calculated from these measurements using the following formula: Tumor Weight (mg) = Tumor Length (mm) X Tumor Width (mm)²/2
For all data, the tumor weight was rounded to the nearest tenth of a gram for analysis. No group is included in the analysis for therapeutic activity in which deaths attributable to drug toxicity exceeded 20 percent of the treated group. Compounds are considered active if more than 60 percent inhibition of tumor growth, as determined by tumor weight, is achieved at maximally tolerated doses.
In Table 2 which follows, Column 1 gives the example number of the compound tested; Column 2, the dose level; Column 3, the route administered; Column 4, the dosage schedule; Column 5, the percent inhibition of the tumor; and Column 6; the toxic deaths observed prior to completion of the study.

[4] = system: Human Cytomegalovirus (HCMV) strain AD169; test: Human Cytomegalovirus Test (plaque inhibition in WI-38 cells); assay type: cell-based; details: read-out: Percent Plaque Inhibition at Specified µg/ml conc.
Protocol: WI-38 cells (American Type Culture Collection; CCL-35) were seeded into 24-well plates in MEM media (GIBCO) supplemented with 10% fetal bovine serum and penicillin/streptomycin. The plates wre incbated at 37°C, in 5 percent carbon dioxide in a humidified incubator for 3 days. Human Cytomegalovirus (HCMV) strain AD169 (American Type Culture Collection) was added to each well (40 plaque forming unites in 100 µl of media) and the virus was allowed to adsorb to the cells for 2 hours at room temperature. The compound of Example 5 was dissolved in 100 percent dimethylsulfoxide at a concentration of 20 mgs/ml and diluted with media to yield final concentrations of 50, 25, 12.5, 6.25, 3.13, 1.6, 0.8, 0.4, 0.2, and 0.1 µg/ml in one set of experiments and 32, 10, 3.2, 1, and 0.32 µg/ml in another set of experiments. Each concentration was done in duplicate. In all experiments, Cytovene (DHPG) was used as a positive control.
The infected cells were incubated for 10 days at 37°C, 5 percent carbon dioxide, in an humidified incubator without changes of media. After incubation, the cells were fixed for at least 15 minutes with 10 percent formalin and rinsed with water. After rinsing, the cells were stained for at least 15 minutes with crystal violet and allowed to dry. HCMV induced plaques were counted with the aid of an iverted microscope. The number of viral plaques appearing in cells treated with each concentration of the Example 5 compound was compared to the number of viral plaques in cells left untreated ("no-drug control") and the percent inhibition of viral plaque formation was calculated. The concentration of the Example 5 compound required to inhibit viral plaque formation by 50 percent was determined using linear regression analysis.

[5] = read-out: Percent Inhibition at Specified µg/ml conc.

N#Cc1nc(N)nc2c1ncn2[C@@H]1O[C@H](CO)[C@@H](O)C1(F)F [Example 7, 2-deoxy-2,2-difluoro-D-ribofuranosyl-1-β-(2-amino-6-cyanopurine)]
IC50 [1]: 2.5 µg/mL (≈ 8.01 µM)

Nc1nc(I)c2ncn([C@@H]3O[C@H](CO)[C@@H](O)C3(F)F)c2n1 [Example 6, 2-deoxy-2,2-difluoro-D-ribofuranosyl-1-β-(2-amino-6-iodopurine)]
IC50 [1]: 0.093 µg/mL (≈ 0.225 µM)

O=c1[nH]c(=O)n([C@@H]2O[C@H](CO)[C@@H](O)[C@@H]2F)cc1I [FIAU, 2'-deoxy-2'-fluoroarabino-5-iodouridine, reference compound]
inhibition at 0.1 µg/mL [2, 5]: 10.8% | inhibition at 1 µg/mL [2, 5]: 35.5% | inhibition at 10 µg/mL [2, 5]: 65.3% | inhibition at 100 µg/mL [2, 5]: 81.7% | IC50 ([2]; read-out: concentration required to inhibit HBV DNA replication by 50 percent): 5.4 µg/mL (≈ 14.5 µM)

Nc1nc(F)nc2c1ncn2[C@@H]1O[C@H](CO)[C@@H](O)C1(F)F [Example 10, 2-deoxy-2,2-difluoro-D-ribofuranosyl-1-β-(2-fluoroadenosine)]
IC50 [1]: 0.094 µg/mL (≈ 0.308 µM)

CN(C)c1nc(N)nc2c1ncn2[C@@H]1O[C@H](CO)[C@@H](O)C1(F)F [Example 4, 2-deoxy-2,2-difluoro-D-ribofuranosyl-1-β-(2-amino-6-dimethylaminopurine)]
IC50 [1]: 4.6 µg/mL (≈ 13.9 µM)

OC[C@H]1O[C@@H](n2cnc3cncnc32)C(F)(F)[C@@H]1O [Example 11, 2-deoxy-2,2-difluoro-D-ribofuranosyl-1-β-purine]
IC50 [1]: 1.3 µg/mL (≈ 4.78 µM)

COc1nc(N)nc2c1ncn2[C@@H]1O[C@H](CO)[C@@H](O)C1(F)F [Example 2, 2-deoxy-2,2-difluoro-D-ribofuranosyl-1-β-(2-amino-6-methoxypurine)]
IC50 [1]: 0.037 µg/mL (≈ 0.117 µM)

CCOc1nc(N)nc2c1ncn2[C@@H]1O[C@H](CO)[C@@H](O)C1(F)F [Example 3, 2-deoxy-2,2-difluoro-D-ribofuranosyl-1-β-(2-amino-6-ethoxypurine)]
IC50 [1]: 0.2 µg/mL (≈ 0.604 µM) | Percent Inhibition of Tumor ([3]; 25 mg/kg): 98% | Toxic Deaths ([3]; 25 mg/kg): 0/10 | Percent Inhibition of Tumor ([3]; 50 mg/kg): 97% | Toxic Deaths ([3]; 50 mg/kg): 0/10 | Percent Inhibition of Tumor ([3]; 100 mg/kg): 98% | Toxic Deaths ([3]; 100 mg/kg): 0/10

Nc1nc(O)nc2c1ncn2[C@@H]1O[C@H](CO)[C@@H](O)C1(F)F [Example 9, 2-deoxy-2,2-difluoro-D-ribofuranosyl-1-β-(2-hydroxyadenosine)]
IC50 [1]: 0.7 µg/mL (≈ 2.31 µM)

Nc1nc(Cl)c2ncn([C@@H]3O[C@H](CO)[C@@H](O)C3(F)F)c2n1 [Example 1, 2-deoxy-2,2-difluoro-D-ribofuranosyl-1-β-(2-amino-6-chloropurine)]
IC50 [1]: 0.007 µg/mL (≈ 0.0218 µM)

Nc1nc(S)c2ncn([C@@H]3O[C@H](CO)[C@@H](O)C3(F)F)c2n1 [(h), 2-deoxy-2,2-difluoro-D-ribofuranosyl-1-β-(2-amino-6-thiopurine)]
IC50 [1]: 4.3 µg/mL (≈ 13.5 µM)

Cc1nc(N)nc2c1ncn2[C@@H]1O[C@H](CO)[C@@H](O)C1(F)F [Example 13, 2-deoxy-2,2-difluoro-D-ribofuranosyl-1-β-(2-amino-6-methylpurine)]
IC50 [1]: 2.6 µg/mL (≈ 8.63 µM)

Nc1nc2c(ncn2COC(CO)CO)c(=O)[nH]1 [Cytovene]
inhibition at 0.2 µg/mL ([4]; Human betaherpesvirus 5, AD169, 240 h, 0.2 µg/ml, WI-38 cells, 10 days): 31% | inhibition at 0.4 µg/mL ([4]; Human betaherpesvirus 5, AD169, 240 h, 0.4 µg/ml, WI-38 cells, 10 days): 31% | inhibition at 0.8 µg/mL ([4]; Human betaherpesvirus 5, AD169, 240 h, 0.8 µg/ml, WI-38 cells, 10 days): 40% | inhibition at 1.6 µg/mL ([4]; Human betaherpesvirus 5, AD169, 240 h, 1.6 µg/ml, WI-38 cells, 10 days): 65.5% | inhibition at 6.25 µg/mL ([4]; Human betaherpesvirus 5, AD169, 240 h, 6.25 µg/ml, WI-38 cells, 10 days): 98% | inhibition at 12.5 µg/mL ([4]; Human betaherpesvirus 5, AD169, 240 h, 12.5 µg/ml, WI-38 cells, 10 days): 100% | inhibition at 25 µg/mL ([4]; Human betaherpesvirus 5, AD169, 240 h, 25 µg/ml, WI-38 cells, 10 days): 100% | inhibition at 50 µg/mL ([4]; Human betaherpesvirus 5, AD169, 240 h, 50 µg/ml, WI-38 cells, 10 days): 100% | inhibition at 3.12 µg/mL ([4]; Human betaherpesvirus 5, AD169, WI-38, 240 h): 91%
